Target: T1, H^+ --K^+ ATPase (Sus scrofa, UniProt P19156)
T1 construct: prepared from the fundus ventriculi gland of fresh swine gastric mucosa; from tissue; host or cells: swine gastric mucosa, fundus ventriculi gland (modified method of Saccomani et al. 1977)
Test: Inhibition effect on H^+ --K^+ ATPase activity
Assay type: biochemical
Settings: H^+ --K^+ ATPase from fresh swine gastric mucosa, 10 μg protein/ml, pH 7.40, 37° C., 30 minutes incubation; compound dissolved in methanol
Procedure: Inhibition effect on H^+ --K^+ ATPase activity
(1) Preparation of H^+ --K+ATPase
The enzyme H^+ --K+ATPase was prepared from the fundus ventriculi gland of fresh swine gastric mucosa by a modified method of Saccomani et al. (Biochem. and Biophys. Acta., 464, 313 (1977)).
(2) Determination of H^+ --K^+ ATPase activity
(§1) Various concentrations of the compounds of the present invention were incubated together with 10 μg protein/ml of the H^+ --K^+ ATPase in a 40 mM Tris HCl buffer (pH 7.40) at 37° C. for 30 minutes. Then 15 mM KCl was added thereto. Ten minutes thereafter, an ATPase reaction between 3 mM of MgCl2 and ATP was started. Ten minutes thereafter, the liberated inorganic phosphoric acid was determined according to Yoda and Hokin's method (cf. Biochem. Biophys. Res., Com., 40, 880 (1970)).
The test compound was 3-(3-methoxy)propoxy-4-methyl-5H-pyrido[1'.2':4.5][1.2.4.]thiazino[2.3-a]- benzimidazol-13-ium tetrafluoroborate (the compound of Example 1). This compound was dissolved in methanol prior to the test.
The inhibition effect (%) was calculated by dividing the difference between the data of the test group and that of the control group, to which solvent was added exclusively, by the data of the control group.
(1) Preparation of H^+ --K^+ ATPase
The enzyme H^+ --K^+ ATPase was prepared from the fundus ventriculi gland of fresh swine gastric mucosa by a modified method of Saccomani et al. (Biochem. and Biophys. Acta., 464, 313 (1977)).
as §1, with “H+--K^+” for “H^+ --K^+”, “MgCl” for “MgCl2”
The test compound was 2-[2-(ethyldithiomethyl)4-(3-methoxy)propoxy-3-methyl-1-pyridinio)benzimidazolide (the compound of Example 1). […]

T1 sequence (P19156 2-1034 limits assumed): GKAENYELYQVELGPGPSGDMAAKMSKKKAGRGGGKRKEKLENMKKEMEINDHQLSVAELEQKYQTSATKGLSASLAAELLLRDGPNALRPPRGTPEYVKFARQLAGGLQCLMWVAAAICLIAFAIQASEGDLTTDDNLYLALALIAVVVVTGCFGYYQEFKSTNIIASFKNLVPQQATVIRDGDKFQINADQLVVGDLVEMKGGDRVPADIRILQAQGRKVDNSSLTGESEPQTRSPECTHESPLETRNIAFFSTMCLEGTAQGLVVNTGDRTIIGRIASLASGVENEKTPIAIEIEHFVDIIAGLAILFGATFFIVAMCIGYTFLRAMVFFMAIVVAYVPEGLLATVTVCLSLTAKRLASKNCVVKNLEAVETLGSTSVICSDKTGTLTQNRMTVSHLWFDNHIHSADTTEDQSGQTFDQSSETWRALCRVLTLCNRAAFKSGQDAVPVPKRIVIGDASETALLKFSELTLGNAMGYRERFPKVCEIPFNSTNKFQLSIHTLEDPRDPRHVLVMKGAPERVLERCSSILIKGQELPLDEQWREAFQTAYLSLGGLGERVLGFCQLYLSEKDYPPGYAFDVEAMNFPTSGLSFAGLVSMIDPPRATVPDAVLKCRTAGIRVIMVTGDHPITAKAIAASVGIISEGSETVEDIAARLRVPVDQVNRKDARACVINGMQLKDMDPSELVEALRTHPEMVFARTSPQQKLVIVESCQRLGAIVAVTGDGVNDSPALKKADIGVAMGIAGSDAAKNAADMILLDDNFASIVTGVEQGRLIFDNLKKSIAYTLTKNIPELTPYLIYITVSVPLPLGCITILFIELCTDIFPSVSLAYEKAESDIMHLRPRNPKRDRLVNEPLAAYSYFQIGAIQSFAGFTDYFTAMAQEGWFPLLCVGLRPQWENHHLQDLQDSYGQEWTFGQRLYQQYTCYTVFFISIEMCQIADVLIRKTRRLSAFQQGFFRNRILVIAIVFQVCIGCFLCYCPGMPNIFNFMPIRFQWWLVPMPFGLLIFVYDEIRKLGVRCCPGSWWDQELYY
T1 sequence (P18434 whole entry partner): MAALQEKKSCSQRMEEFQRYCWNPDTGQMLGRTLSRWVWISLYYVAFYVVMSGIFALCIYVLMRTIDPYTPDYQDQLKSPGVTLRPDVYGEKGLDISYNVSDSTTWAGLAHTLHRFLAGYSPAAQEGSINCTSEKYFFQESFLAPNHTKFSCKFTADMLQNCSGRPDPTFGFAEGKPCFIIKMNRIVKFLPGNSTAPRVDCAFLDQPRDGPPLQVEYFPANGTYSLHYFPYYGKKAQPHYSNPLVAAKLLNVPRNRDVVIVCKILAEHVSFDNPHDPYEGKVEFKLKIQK

| IC50 | SMILES |
| --- | --- |
| 0.44 µM | COCCCOc1cc[n+]2c(c1C)CSn1c-2nc2ccccc21 [Example 1, 3-(3-Methoxy)propoxy-4-methyl-5H-pyrido[1'.2':4.5][1.2.4]thiaziano[2.3-a]benzimidazol-13-ium tetrafluoroborate] |
| 11 µM | COc1ccc2[nH]c([S+]([O-])Cc3ncc(C)c(OC)c3C)nc2c1 (stereo not drawn) [Omeprazole, reference compound] |
| > 10 µM | CCSSCc1c(C)c(OCCCOC)cc[n+]1-c1nc2ccccc2[n-]1 [Example 12, 2-[2-(Ethyldithiomethyl)-4-(3-methoxy)propoxy-3-methyl-1pyridinio]benzimidazolide] |

From patent US5162317A, “Pyridinium salt and pharmacological composition containing the same” (Esai Co., Ltd., priority 1988, dated 1992)
